According to US12209102B2, “Heterocyclic compounds and uses thereof” (Kumquat Biosciences Inc., priority 2022, dated 2025):

How the values were obtained:
Format in all cases: biochemical
K-Ras WT = biological target: T1, K-Ras WT (Homo sapiens, UniProt P01116); test: HTRF resonance energy transfer assay, K-Ras WT / SOS1 interaction; settings: HTRF assay of Example 5; read-out: IC50 against K-Ras WT
T1 construct: made in house; host or cells: E. coli BL21 (DE3)
Description: (§1) This assay can be also used to assess a selective inhibition or reduction of signaling output of a mutant Ras protein relative to a wildtype, or relative to a different mutant Ras protein. For example, the equilibrium interaction of wildtype Kras or K-Ras mutant (e.g., wildtype or a mutant thereof) with SOS1 (e.g., hSOS1) can be assessed as a proxy or an indication for a subject compound's ability to bind and inhibit Ras protein. HTRF assay detects from (i) a fluorescence resonance energy transfer (FRET) donor (e.g., antiGST-Europium) that is bound to GST-tagged K-Ras mutant to (ii) a FRET acceptor (e.g., anti-6His-XL665) bound to a His-tagged hSOS1.
(§2) The assay buffer can contain˜5 mM HEPES pH 7.4, ˜150 mM NaCl, ˜ 1 mM DTT, 0.05% BSA and 0.0025%(v/v) Igepal. A Ras working solution is prepared in an assay buffer containing typically a suitable amount of the protein construct (e.g., GST-tagged K-Ras mutant) and the FRET donor (e.g., antiGST-Eu(K) from Cisbio, France). A SOS1 working solution is prepared in an assay buffer containing suitable amount of the protein construct (e.g., His-hSOS1) and the FRET acceptor (e.g., anti-6His-XL665 from Cisbio, France). A suitable amount of the protein construct will depend on the range of activity or range of IC50 values being detected or under investigation. For detecting IC50 within a range of 500 nM, the protein constructs of the same range of molarity can be utilized.
(§3) A fixed volume of DMSO with or without test compound is transferred into a 384-well plate. Ras working solution is added to all wells of the test plate. SOS1 working solution is added to all wells except for those that are subsequently filled the inhibitor control solution. Upon incubation for about 10 minutes or longer, the fluorescence is measured with a M1000Pro plate reader (Tecan) using HTRF detection (excitation 337 nm, emission 1: 620 nm, emission 2: 665 nm). Compounds are tested in duplicates at different concentrations (for example, 10 μM, 2.5 μM, 0.63 μM, 0.16 μM, 0.04 μM, 0.01 μM test compound). The ratiometric data (i.e., emission 2 divided by emission 1) is used to calculate IC50 values against Ras using GraphPad Prism (GraphPad software). Following this general procedure, samples were tested with or without a subject compound disclosed herein including compounds exemplified in Table 1 to assess their abilities to inhibit a K-Ras mutant relative to another mutant or WT. Signaling output measured in terms of IC50 values can be obtained, a ratio of IC50 against one mutant relative to another mutant can be calculated. For instance, a selective reduction of K-Ras G12D signaling output can be evidenced by a ratio greater than one. In particular, a selective reduction of K-Ras G12D signaling relative to K-Ras WT signaling is evidenced as the ratio of IC50 (against K-Ras WT) to IC50 (against K-Ras G12D) is greater than 1.

K-Ras G12S = biological target: T2, K-Ras G12S (Homo sapiens, UniProt P01116, G12S); test: HTRF resonance energy transfer assay, K-Ras G12S / SOS1 interaction; settings: HTRF assay of Example 5; read-out: IC50 against K-Ras G12S
T2 construct: made in house; host or cells: E. coli BL21 (DE3)
Description: as §1, §2, §3

K-Ras G12V = biological target: T3, K-Ras G12V (Homo sapiens, UniProt P01116, G12V); test: HTRF resonance energy transfer assay, K-Ras G12V / SOS1 interaction; settings: HTRF assay of Example 5; read-out: IC50 against K-Ras G12V
T3 construct: made in house; host or cells: E. coli BL21 (DE3)
Description: as §1, §2, §3

T2 sequence (P01116 1-188 isoform P01116-2 G12S): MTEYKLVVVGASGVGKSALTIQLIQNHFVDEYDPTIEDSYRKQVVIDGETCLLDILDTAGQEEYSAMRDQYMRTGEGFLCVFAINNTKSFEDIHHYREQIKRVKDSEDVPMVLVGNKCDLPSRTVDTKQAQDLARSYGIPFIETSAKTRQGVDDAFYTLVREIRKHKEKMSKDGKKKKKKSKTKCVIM
T3 sequence (P01116 1-188 isoform P01116-2 G12V): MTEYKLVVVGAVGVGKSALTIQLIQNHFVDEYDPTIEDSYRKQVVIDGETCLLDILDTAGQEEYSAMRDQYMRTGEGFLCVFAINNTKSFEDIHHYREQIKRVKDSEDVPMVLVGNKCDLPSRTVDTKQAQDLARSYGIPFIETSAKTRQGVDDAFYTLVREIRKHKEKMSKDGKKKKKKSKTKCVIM
T1 sequence (P01116 1-188 isoform P01116-2): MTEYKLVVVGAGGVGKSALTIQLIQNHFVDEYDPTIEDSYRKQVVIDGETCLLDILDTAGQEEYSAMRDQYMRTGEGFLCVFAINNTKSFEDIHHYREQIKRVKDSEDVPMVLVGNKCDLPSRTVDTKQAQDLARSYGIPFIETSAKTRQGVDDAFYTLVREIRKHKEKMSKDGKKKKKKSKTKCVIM

Row | Structure (SMILES) | IC50 (K-Ras G12S) [nM] | IC50 (K-Ras G12V) [nM] | IC50 (K-Ras WT) [nM]
1 | N#Cc1c(N)sc2c(F)ccc(-c3c(Cl)c4c5c(nc(OC[C@@]67CCCN6C[C@H](F)C7)nc5c3F)N(CC(F)F)C(C3CCN3C(=O)C3CN3)CO4)c12 (stereo partly drawn) [Compound 666, 2-amino-4-(5-(1-(aziridine-2-carbonyl)azetidin-2-yl)-8-chloro-4-(2,2-difluoroethyl)-10-fluoro-2-(((2R,7aS)-2-fluorotetrahydro-1H-pyrrolizin-7a(5H)-yl)methoxy)-5,6-dihydro-4H-[1,4]oxazepino[5,6,7-de]quinazolin-9-yl)-7-fluorobenzo[b]thiophene-3-carbonitrile] | < 100 | – | < 100
2 | N#Cc1c(N)sc2c(F)ccc(-c3c(Cl)c4c5c(nc(OC[C@@]67CCCN6C[C@H](F)C7)nc5c3F)N(C3C5CC3N(C(=O)C(F)F)C5)CCO4)c12 (stereo partly drawn) [Compound 886, 2-amino-4-(8-chloro-4-(2-(2,2-difluoroacetyl)-2-azabicyclo[2.1.1]hexan-5-yl)-10-fluoro-2-(((2R,7aS)-2-fluorotetrahydro-1H-pyrrolizin-7a(5H)-yl)methoxy)-5,6-dihydro-4H-[1,4]oxazepino[5,6,7-de]quinazolin-9-yl)-7-fluorobenzo[b]thiophene-3-carbonitrile] | < 100 | – | < 100
3 | N#Cc1c(N)sc2c(F)ccc(-c3c(Cl)c4c5c(nc(OC[C@@]67CCCN6C[C@H](F)C7)nc5c3F)N(CC(F)F)C(C3CCCN3C(=O)[C@H]3CN3)CO4)c12 (stereo partly drawn) [Compound 1007, 2-amino-4-(5-(1-((R)-aziridine-2-carbonyl)pyrrolidin-2-yl)-8-chloro-4-(2,2-difluoroethyl)-10-fluoro-2-(((2R,7aS)-2-fluorotetrahydro-1H-pyrrolizin-7a(5H)-yl)methoxy)-5,6-dihydro-4H-[1,4]oxazepino[5,6,7-de]quinazolin-9-yl)-7-fluorobenzo[b]thiophene-3-carbonitrile] | – | – | < 100
4 | C[C@@H]1CC(CO)Oc2c(Cl)c(-c3ccc(F)c4sc(N)c(C#N)c34)c(F)c3nc(OC[C@@]45CCCN4C[C@H](F)C5)nc(c23)N1 (stereo partly drawn) [Compound 1210, 2-amino-4-((5R)-9-chloro-11-fluoro-2-(((2R,7aS)-2-fluorotetrahydro-1H-pyrrolizin-7a(5H)-yl)methoxy)-7-(hydroxymethyl)-5-methyl-4,5,6,7-tetrahydro-[1,5]oxazocino[4,3,2-de]quinazolin-10-yl)-7-fluorobenzo[b]thiophene-3-carbonitrile] | – | < 100 | –

Further lines, with some results ahead:

Row | IC50 (K-Ras G12S) [nM] | IC50 (K-Ras G12V) [nM] | Structure (SMILES) | IC50 (K-Ras WT) [nM]
5 | < 100 | < 100 | N#Cc1c(N)sc2c(F)ccc(-c3c(Cl)c4c5c(nc(OC[C@@]67CCCN6C[C@H](F)C7)nc5c3F)N(CC(F)F)[C@H](CNC=O)CO4)c12 [Compound 627, N-(((5R)-9-(2-amino-3-cyano-7-fluorobenzo[b]thiophen-4-yl)-8-chloro-4-(2,2-difluoroethyl)-10-fluoro-2-(((2R,7aS)-2-fluorotetrahydro-1H-pyrrolizin-7a(5H)-yl)methoxy)-5,6-dihydro-4H-[1,4]oxazepino[5,6,7-de]quinazolin-5-yl)methyl)formamide] | –
6 | – | < 100 | C[C@@H](O)[C@@H]1COc2c(Cl)c(-c3ccc(F)c4sc(N)c(C#N)c34)c(F)c3nc(OC[C@@]45CCCN4C[C@H](F)C5)nc(c23)N1CC(F)F [Compound 1111, 2-amino-4-((5S)-8-chloro-4-(2,2-difluoroethyl)-10-fluoro-2-(((2R,7aS)-2-fluorotetrahydro-1H-pyrrolizin-7a(5H)-yl)methoxy)-5-((R)-1-hydroxyethyl)-5,6-dihydro-4H-[1,4]oxazepino[5,6,7-de]quinazolin-9-yl)-7-fluorobenzo[b]thiophene-3-carbonitrile] | –
7 | – | < 100 | C=C(F)C1COc2c(Cl)c(-c3ccc(F)c4sc(N)c(C#N)c34)c(F)c3nc(OC[C@@]45CCCN4C[C@H](F)C5)nc(c23)N1CC(F)F (stereo partly drawn) [Compound 651, 2-amino-4-(8-chloro-4-(2,2-difluoroethyl)-10-fluoro-2-(((2R,7aS)-2-fluorotetrahydro-1H-pyrrolizin-7a(5H)-yl)methoxy)-5-(1-fluorovinyl)-5,6-dihydro-4H-[1,4]oxazepino[5,6,7-de]quinazolin-9-yl)-7-fluorobenzo[b]thiophene-3-carbonitrile] | –
